Source: patent US20250230193A1, “CYCLIC COMPOUND HAVING SELECTIVE KRAS INHIBITORY EFFECT ON HRAS AND NRAS” (CHUGAI SEIYAKU KABUSHIKI KAISHA, priority 2022, published 2025)
Where a SMILES comes first, the peptide text is derived from it. Bridges are numbered along the chain shown (N, C = ends). [ ]: non-standard residue; d: D form. The star is where a group is joined. hPhe(3-Cl-4-CF3) = N[C@@H](CCc1ccc(C(F)(F)F)c(Cl)c1)C(=O)O; NPrPhe(4-CF3) = CCCN[C@@H](Cc1ccc(C(F)(F)F)cc1)C(=O)O; NMeAbu(4,4,4-F3) = CN[C@@H](CC(F)(F)F)C(=O)O; NMeGly(cPent) = CN[C@H](C(=O)O)C1CCCC1; Pro(4,4-F2) = O=C(O)[C@@H]1CC(F)(F)CN1; NMeGly(cBu) = CN[C@H](C(=O)O)C1CCC1; NMeD = CN[C@@H](CC(=O)O)C(=O)O; NMeL = CN[C@@H](CC(C)C)C(=O)O; NMeNva = CCC[C@H](NC)C(=O)O; NMeAbu = CC[C@H](NC)C(=O)O; Morpholide = C1CN(*)CCO1; NMeA = CN[C@@H](C)C(=O)O; Ac5c = NC1(C(=O)O)CCCC1; Aze = O=C(O)[C@@H]1CCN1; Ac4c = NC1(C(=O)O)CCC1; Sar = CNCC(=O)O

Key:
[1] = target: GDP-bound HRAS wild-type protein (Homo sapiens, UniProt P01112); assay: Binding to HRAS by surface plasmon resonance (SPR), Single Cycle Kinetics; settings: KD ratio HRAS/KRAS, SPR
[2] = target: GDP-bound NRAS wild-type protein (Homo sapiens, UniProt P01111); assay: Binding to NRAS by surface plasmon resonance (SPR), Single Cycle Kinetics; settings: KD ratio NRAS/KRAS, SPR
Chain of GDP-bound NRAS wild-type protein (P01111 whole entry): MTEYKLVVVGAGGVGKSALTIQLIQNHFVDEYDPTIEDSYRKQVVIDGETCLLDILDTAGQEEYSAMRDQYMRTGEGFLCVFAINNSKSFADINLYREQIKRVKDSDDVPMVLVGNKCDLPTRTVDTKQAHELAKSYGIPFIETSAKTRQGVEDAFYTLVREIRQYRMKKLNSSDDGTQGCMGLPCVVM

Chain of GDP-bound HRAS wild-type protein (P01112 whole entry): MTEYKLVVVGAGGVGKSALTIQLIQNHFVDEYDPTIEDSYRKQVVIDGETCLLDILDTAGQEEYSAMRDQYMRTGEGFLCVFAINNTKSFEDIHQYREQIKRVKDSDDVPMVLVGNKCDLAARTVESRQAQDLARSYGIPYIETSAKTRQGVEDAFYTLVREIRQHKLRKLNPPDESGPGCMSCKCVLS

SMILES | HRAS/KRAS (ratio of KD for GDP-bound HRAS wild-type to KD for KRAS) [1] | NRAS/KRAS (ratio of KD for GDP-bound NRAS wild-type to KD for KRAS) [2]
CCCN1C(=O)[C@@H]2CCN2C(=O)[C@H](C)N(C)C(=O)[C@H]([C@@H](C)CC)NC(=O)[C@H](CC)N(C)C(=O)C[C@@H](C(=O)N2CCOCC2)N(C)C(=O)[C@H](C2CCCC2)N(C)C(=O)C2(CCCC2)NC(=O)[C@@H]2CCCN2C(=O)[C@H](CCc2ccc(C(F)(F)F)c(Cl)c2)NC(=O)CN(C)C(=O)[C@@H]1Cc1ccc(C(F)(F)F)cc1 [PP0194] ([NMeAbu]I[NMeA][Aze][NPrPhe(4-CF3)][Sar][hPhe(3-Cl-4-CF3)]P[Ac5c][NMeGly(cPent)][NMeD]-Morpholide; lactam N-11) | B (a compound having 3 or more and less than 10 is denoted as B) | C (A compound having a KD ratio of 0.1 or more and less than 3 is denoted as C)
CCCN1C(=O)CN(C)C(=O)CN(C)C(=O)[C@H]([C@@H](C)CC)NC(=O)[C@H](CC(C)C)N(C)C(=O)C[C@@H](C(=O)N2CCOCC2)N(C)C(=O)[C@H](C2CCCC2)N(C)C(=O)C2(CCCC2)NC(=O)[C@@H]2CC(F)(F)CN2C(=O)[C@H](CCc2ccc(C(F)(F)F)c(Cl)c2)NC(=O)CN(C)C(=O)[C@@H]1Cc1ccc(C(F)(F)F)cc1 [PP0195] ([NMeL]I[Sar][Sar][NPrPhe(4-CF3)][Sar][hPhe(3-Cl-4-CF3)][Pro(4,4-F2)][Ac5c][NMeGly(cPent)][NMeD]-Morpholide; lactam N-11) | C (A compound having a KD ratio of 0.1 or more and less than 3 is denoted as C) | B (a compound having 3 or more and less than 10 is denoted as B)
CCCN1C(=O)[C@@H]2CCN2C(=O)[C@H](C)N(C)C(=O)[C@H]([C@@H](C)CC)NC(=O)[C@H](CC(C)C)N(C)C(=O)C[C@@H](C(=O)N2CCOCC2)N(C)C(=O)[C@H](C2CCCC2)N(C)C(=O)C2(CCCC2)NC(=O)[C@@H]2CC(F)(F)CN2C(=O)[C@H](CCc2ccc(C(F)(F)F)c(Cl)c2)NC(=O)CN(C)C(=O)[C@@H]1Cc1ccc(C(F)(F)F)cc1 [PP0196] ([NMeL]I[NMeA][Aze][NPrPhe(4-CF3)][Sar][hPhe(3-Cl-4-CF3)][Pro(4,4-F2)][Ac5c][NMeGly(cPent)][NMeD]-Morpholide; lactam N-11) | C (A compound having a KD ratio of 0.1 or more and less than 3 is denoted as C) | C (A compound having a KD ratio of 0.1 or more and less than 3 is denoted as C)
CCCN1C(=O)CN(C)C(=O)CN(C)C(=O)[C@H]([C@@H](C)CC)NC(=O)[C@H](CC(C)C)N(C)C(=O)C[C@@H](C(=O)N2CCOCC2)N(C)C(=O)[C@H](C2CCCC2)N(C)C(=O)C2(CCC2)NC(=O)[C@@H]2CCCN2C(=O)[C@H](CCc2ccc(C(F)(F)F)c(Cl)c2)NC(=O)CN(C)C(=O)[C@@H]1Cc1ccc(C(F)(F)F)cc1 [PP0197] ([NMeL]I[Sar][Sar][NPrPhe(4-CF3)][Sar][hPhe(3-Cl-4-CF3)]P[Ac4c][NMeGly(cPent)][NMeD]-Morpholide; lactam N-11) | C (A compound having a KD ratio of 0.1 or more and less than 3 is denoted as C) | B (a compound having 3 or more and less than 10 is denoted as B)
CCCN1C(=O)[C@@H]2CCN2C(=O)[C@H](C)N(C)C(=O)[C@H]([C@@H](C)CC)NC(=O)[C@H](CC(C)C)N(C)C(=O)C[C@@H](C(=O)N2CCOCC2)N(C)C(=O)[C@H](C2CCCC2)N(C)C(=O)C2(CCC2)NC(=O)[C@@H]2CCCN2C(=O)[C@H](CCc2ccc(C(F)(F)F)c(Cl)c2)NC(=O)CN(C)C(=O)[C@@H]1Cc1ccc(C(F)(F)F)cc1 [PP0198] ([NMeL]I[NMeA][Aze][NPrPhe(4-CF3)][Sar][hPhe(3-Cl-4-CF3)]P[Ac4c][NMeGly(cPent)][NMeD]-Morpholide; lactam N-11) | B (a compound having 3 or more and less than 10 is denoted as B) | C (A compound having a KD ratio of 0.1 or more and less than 3 is denoted as C)
CCCN1C(=O)CN(C)C(=O)CN(C)C(=O)[C@H]([C@@H](C)CC)NC(=O)[C@H](CC(F)(F)F)N(C)C(=O)C[C@@H](C(=O)N2CCOCC2)N(C)C(=O)[C@H](C2CCCC2)N(C)C(=O)C2(CCCC2)NC(=O)[C@@H]2CC(F)(F)CN2C(=O)[C@H](CCc2ccc(C(F)(F)F)c(Cl)c2)NC(=O)CN(C)C(=O)[C@@H]1Cc1ccc(C(F)(F)F)cc1 [PP0199] ([NMeAbu(4,4,4-F3)]I[Sar][Sar][NPrPhe(4-CF3)][Sar][hPhe(3-Cl-4-CF3)][Pro(4,4-F2)][Ac5c][NMeGly(cPent)][NMeD]-Morpholide; lactam N-11) | C (A compound having a KD ratio of 0.1 or more and less than 3 is denoted as C) | B (a compound having 3 or more and less than 10 is denoted as B)
CCCN1C(=O)CN(C)C(=O)CN(C)C(=O)[C@H]([C@@H](C)CC)NC(=O)[C@H](C2CCC2)N(C)C(=O)C[C@@H](C(=O)N2CCOCC2)N(C)C(=O)[C@H](C2CCCC2)N(C)C(=O)C2(CCCC2)NC(=O)[C@@H]2CC(F)(F)CN2C(=O)[C@H](CCc2ccc(C(F)(F)F)c(Cl)c2)NC(=O)CN(C)C(=O)[C@@H]1Cc1ccc(C(F)(F)F)cc1 [PP0200] ([NMeGly(cBu)]I[Sar][Sar][NPrPhe(4-CF3)][Sar][hPhe(3-Cl-4-CF3)][Pro(4,4-F2)][Ac5c][NMeGly(cPent)][NMeD]-Morpholide; lactam N-11) | C (A compound having a KD ratio of 0.1 or more and less than 3 is denoted as C) | C (A compound having a KD ratio of 0.1 or more and less than 3 is denoted as C)
CCC[C@H]1C(=O)N[C@@H]([C@@H](C)CC)C(=O)N(C)CC(=O)N(C)CC(=O)N(CCC)[C@@H](Cc2ccc(C(F)(F)F)cc2)C(=O)N(C)CC(=O)N[C@@H](CCc2ccc(C(F)(F)F)c(Cl)c2)C(=O)N2CC(F)(F)C[C@H]2C(=O)NC2(CCCC2)C(=O)N(C)[C@@H](C2CCCC2)C(=O)N(C)[C@H](C(=O)N2CCOCC2)CC(=O)N1C [PP0201] ([NMeNva]I[Sar][Sar][NPrPhe(4-CF3)][Sar][hPhe(3-Cl-4-CF3)][Pro(4,4-F2)][Ac5c][NMeGly(cPent)][NMeD]-Morpholide; lactam N-11) | C (A compound having a KD ratio of 0.1 or more and less than 3 is denoted as C) | B (a compound having 3 or more and less than 10 is denoted as B)
CCCN1C(=O)CN(C)C(=O)CN(C)C(=O)[C@H]([C@@H](C)CC)NC(=O)[C@H](CC)N(C)C(=O)C[C@@H](C(=O)N2CCOCC2)N(C)C(=O)[C@H](C2CCCC2)N(C)C(=O)C2(CCCC2)NC(=O)[C@@H]2CC(F)(F)CN2C(=O)[C@H](CCc2ccc(C(F)(F)F)c(Cl)c2)NC(=O)CN(C)C(=O)[C@@H]1Cc1ccc(C(F)(F)F)cc1 [PP0202] ([NMeAbu]I[Sar][Sar][NPrPhe(4-CF3)][Sar][hPhe(3-Cl-4-CF3)][Pro(4,4-F2)][Ac5c][NMeGly(cPent)][NMeD]-Morpholide; lactam N-11) | C (A compound having a KD ratio of 0.1 or more and less than 3 is denoted as C) | B (a compound having 3 or more and less than 10 is denoted as B)
CCCN1C(=O)[C@@H]2CCN2C(=O)[C@H](C)N(C)C(=O)[C@H]([C@@H](C)CC)NC(=O)[C@H](CC(F)(F)F)N(C)C(=O)C[C@@H](C(=O)N2CCOCC2)N(C)C(=O)[C@H](C2CCCC2)N(C)C(=O)C2(CCCC2)NC(=O)[C@@H]2CC(F)(F)CN2C(=O)[C@H](CCc2ccc(C(F)(F)F)c(Cl)c2)NC(=O)CN(C)C(=O)[C@@H]1Cc1ccc(C(F)(F)F)cc1 [PP0203] ([NMeAbu(4,4,4-F3)]I[NMeA][Aze][NPrPhe(4-CF3)][Sar][hPhe(3-Cl-4-CF3)][Pro(4,4-F2)][Ac5c][NMeGly(cPent)][NMeD]-Morpholide; lactam N-11) | C (A compound having a KD ratio of 0.1 or more and less than 3 is denoted as C) | C (A compound having a KD ratio of 0.1 or more and less than 3 is denoted as C)
CCCN1C(=O)[C@@H]2CCN2C(=O)[C@H](C)N(C)C(=O)[C@H]([C@@H](C)CC)NC(=O)[C@H](C2CCC2)N(C)C(=O)C[C@@H](C(=O)N2CCOCC2)N(C)C(=O)[C@H](C2CCCC2)N(C)C(=O)C2(CCCC2)NC(=O)[C@@H]2CC(F)(F)CN2C(=O)[C@H](CCc2ccc(C(F)(F)F)c(Cl)c2)NC(=O)CN(C)C(=O)[C@@H]1Cc1ccc(C(F)(F)F)cc1 [PP0204] ([NMeGly(cBu)]I[NMeA][Aze][NPrPhe(4-CF3)][Sar][hPhe(3-Cl-4-CF3)][Pro(4,4-F2)][Ac5c][NMeGly(cPent)][NMeD]-Morpholide; lactam N-11) | C (A compound having a KD ratio of 0.1 or more and less than 3 is denoted as C) | C (A compound having a KD ratio of 0.1 or more and less than 3 is denoted as C)
CCC[C@H]1C(=O)N[C@@H]([C@@H](C)CC)C(=O)N(C)[C@@H](C)C(=O)N2CC[C@H]2C(=O)N(CCC)[C@@H](Cc2ccc(C(F)(F)F)cc2)C(=O)N(C)CC(=O)N[C@@H](CCc2ccc(C(F)(F)F)c(Cl)c2)C(=O)N2CC(F)(F)C[C@H]2C(=O)NC2(CCCC2)C(=O)N(C)[C@@H](C2CCCC2)C(=O)N(C)[C@H](C(=O)N2CCOCC2)CC(=O)N1C [PP0205] ([NMeNva]I[NMeA][Aze][NPrPhe(4-CF3)][Sar][hPhe(3-Cl-4-CF3)][Pro(4,4-F2)][Ac5c][NMeGly(cPent)][NMeD]-Morpholide; lactam N-11) | C (A compound having a KD ratio of 0.1 or more and less than 3 is denoted as C) | C (A compound having a KD ratio of 0.1 or more and less than 3 is denoted as C)
